# Results as given in ChEMBL document CHEMBL1201862, “PubChem BioAssay data set” (2004).
# Calls of active or inactive are those of the source.
# Tests used:
# [1] = system: INS1; experiment: INS-1E survival protection against cytokine death – cell-based, luminescence, retest, dose response (AID 449756); type: functional; settings: Rattus norvegicus;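 further: cell death triggered by IL-1 beta plus TNF-alpha plus IFN-gamma mixture; protective hits raise ATP signal compared with cytokine alone wells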
# [2] = cells; type: functional, cell-based
# [3] = cells; type: functional, cell-based; remark: listed apart in the source
# [4] = Luminescence-based counterscreen assay for KLF5 inhibitors: dose response cell-based high throughput screening assay to identify cytotoxic compounds using the IEC-6 intestinal epithelial cell line. [Related pubchem assays: 1700 (Primary screen.), 1834 (Confirmation screen.), 1858 (Summary AID.), 1905 (Counterscreen.)]; type: functional
# [5] = molecular target: Ion channel NompC (Danio rerio, UniProt Q7T1G6); experiment: Fluorescence counterscreen assay for TRPML3 agonists: dose response cell-based high-throughput screening assay to identify agonists of the transient receptor potential channel N1 (TRPN1). [Related pubchem assays: 1526, 1424, 1448 ]; type: functional
# Ion channel NompC, sequence (Q7T1G6 whole entry): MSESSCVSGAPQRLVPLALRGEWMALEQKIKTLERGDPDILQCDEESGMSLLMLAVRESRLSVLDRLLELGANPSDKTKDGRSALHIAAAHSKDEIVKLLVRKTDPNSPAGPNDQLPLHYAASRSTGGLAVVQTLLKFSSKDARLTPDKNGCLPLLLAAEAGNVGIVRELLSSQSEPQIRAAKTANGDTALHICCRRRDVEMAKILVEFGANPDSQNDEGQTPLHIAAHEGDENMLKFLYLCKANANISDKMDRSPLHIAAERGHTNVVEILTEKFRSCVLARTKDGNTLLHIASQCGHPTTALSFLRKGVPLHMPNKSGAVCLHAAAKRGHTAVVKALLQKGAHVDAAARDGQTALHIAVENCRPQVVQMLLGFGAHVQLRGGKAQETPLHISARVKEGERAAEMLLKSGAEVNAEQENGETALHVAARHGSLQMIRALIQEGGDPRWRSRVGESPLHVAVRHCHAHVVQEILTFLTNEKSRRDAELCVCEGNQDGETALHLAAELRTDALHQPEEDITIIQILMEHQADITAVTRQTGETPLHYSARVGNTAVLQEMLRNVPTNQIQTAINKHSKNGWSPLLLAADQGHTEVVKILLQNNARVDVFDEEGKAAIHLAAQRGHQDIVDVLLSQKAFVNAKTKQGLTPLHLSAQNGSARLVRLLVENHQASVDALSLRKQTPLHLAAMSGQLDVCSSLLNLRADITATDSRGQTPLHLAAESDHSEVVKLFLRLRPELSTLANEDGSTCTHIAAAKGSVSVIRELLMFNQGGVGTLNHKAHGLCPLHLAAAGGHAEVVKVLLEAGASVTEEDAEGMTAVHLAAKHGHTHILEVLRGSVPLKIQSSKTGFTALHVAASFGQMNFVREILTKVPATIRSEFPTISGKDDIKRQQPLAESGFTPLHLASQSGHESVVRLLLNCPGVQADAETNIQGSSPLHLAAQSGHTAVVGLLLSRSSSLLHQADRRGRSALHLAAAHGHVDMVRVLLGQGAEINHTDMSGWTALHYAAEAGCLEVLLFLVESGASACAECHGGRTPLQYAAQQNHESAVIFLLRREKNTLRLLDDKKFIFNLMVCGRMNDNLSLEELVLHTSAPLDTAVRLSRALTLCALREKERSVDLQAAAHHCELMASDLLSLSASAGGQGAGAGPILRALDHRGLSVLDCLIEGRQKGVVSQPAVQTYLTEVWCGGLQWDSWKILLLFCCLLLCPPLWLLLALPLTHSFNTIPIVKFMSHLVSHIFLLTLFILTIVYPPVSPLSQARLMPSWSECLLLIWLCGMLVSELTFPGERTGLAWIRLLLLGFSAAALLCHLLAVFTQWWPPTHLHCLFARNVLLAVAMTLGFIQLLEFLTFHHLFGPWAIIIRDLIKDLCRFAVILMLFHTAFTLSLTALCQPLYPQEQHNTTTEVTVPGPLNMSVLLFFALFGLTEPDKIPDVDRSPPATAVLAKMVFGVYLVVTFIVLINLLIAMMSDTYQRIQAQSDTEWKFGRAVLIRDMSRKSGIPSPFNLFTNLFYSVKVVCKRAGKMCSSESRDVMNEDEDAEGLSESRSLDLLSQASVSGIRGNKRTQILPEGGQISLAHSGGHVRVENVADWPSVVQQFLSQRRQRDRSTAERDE
# [6] = molecular target: T1, Heat shock factor protein 1 (Mus musculus, UniProt P38532); experiment: decrease of HSF1-responsive luciferase luminescence – cell-based, NIH3T3, dose retest, confirmation (AID 2382); type: functional;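 further: NIH3T3 fibroblasts with HSF1-driven luciferase reporter stressed by proteasome inhibitor MG132; luminescence from HSF1-driven luciferase expression after 8 hours of MG132 stress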
# T1 sequence (P38532 whole entry): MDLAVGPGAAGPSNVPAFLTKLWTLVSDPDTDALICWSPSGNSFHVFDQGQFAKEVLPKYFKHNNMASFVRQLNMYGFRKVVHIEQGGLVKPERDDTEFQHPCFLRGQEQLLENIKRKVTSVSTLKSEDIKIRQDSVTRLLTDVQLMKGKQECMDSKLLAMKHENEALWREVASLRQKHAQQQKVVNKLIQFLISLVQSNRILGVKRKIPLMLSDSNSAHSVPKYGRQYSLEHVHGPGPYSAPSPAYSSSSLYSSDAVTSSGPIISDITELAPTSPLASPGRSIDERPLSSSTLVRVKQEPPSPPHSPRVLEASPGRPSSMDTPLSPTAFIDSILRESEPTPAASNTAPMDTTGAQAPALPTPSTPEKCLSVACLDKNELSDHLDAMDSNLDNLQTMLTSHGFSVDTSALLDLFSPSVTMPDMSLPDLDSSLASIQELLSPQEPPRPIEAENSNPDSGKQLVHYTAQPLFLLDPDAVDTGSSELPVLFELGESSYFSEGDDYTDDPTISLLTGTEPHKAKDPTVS
# [7] = molecular target: T2, Mucolipin-3 (Homo sapiens, UniProt Q8TDD5); experiment: Dose response cell-based high-throughput screening assay for agonists of the transient receptor potential channel ML3 (TRPML3). [Related pubchem assays: 1526, 1424, 1448 ]; type: functional
# T2 sequence (Q8TDD5 whole entry): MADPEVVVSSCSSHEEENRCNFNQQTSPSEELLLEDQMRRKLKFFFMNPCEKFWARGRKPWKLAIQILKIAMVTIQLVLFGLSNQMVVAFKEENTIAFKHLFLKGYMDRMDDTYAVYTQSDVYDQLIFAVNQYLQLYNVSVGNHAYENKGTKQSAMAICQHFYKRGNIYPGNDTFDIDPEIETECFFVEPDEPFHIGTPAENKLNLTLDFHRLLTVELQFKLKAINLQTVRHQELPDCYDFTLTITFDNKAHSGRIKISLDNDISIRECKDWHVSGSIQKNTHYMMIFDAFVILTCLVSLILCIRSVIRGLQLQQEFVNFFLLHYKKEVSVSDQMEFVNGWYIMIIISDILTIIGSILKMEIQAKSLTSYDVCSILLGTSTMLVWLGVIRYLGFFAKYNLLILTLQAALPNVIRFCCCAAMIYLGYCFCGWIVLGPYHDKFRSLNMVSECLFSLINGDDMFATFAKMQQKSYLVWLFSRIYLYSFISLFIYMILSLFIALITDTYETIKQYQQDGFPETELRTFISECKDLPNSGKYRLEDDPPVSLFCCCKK
# [8] = mitochondrial function rescue without frataxin homolog – Friedreich's ataxia, plus single-dose screen, dose response (AID 1465); type: functional;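 further: yeast depleted of Yfh1p frataxin homolog grown on glycerol needing respiration; WST-1 tetrazolium dye reduction as measure of cellular dehydrogenase metabolic activity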
# [9] = molecular target: T3, Replicative DNA helicase DnaB (Mycobacterium tuberculosis, UniProt P9WMR3); experiment: DnaB intein splicing inhibitors, dose response, biochemical, cell-free fluorescence (AID 449749); type: functional
# T3 sequence (P9WMR3 whole entry): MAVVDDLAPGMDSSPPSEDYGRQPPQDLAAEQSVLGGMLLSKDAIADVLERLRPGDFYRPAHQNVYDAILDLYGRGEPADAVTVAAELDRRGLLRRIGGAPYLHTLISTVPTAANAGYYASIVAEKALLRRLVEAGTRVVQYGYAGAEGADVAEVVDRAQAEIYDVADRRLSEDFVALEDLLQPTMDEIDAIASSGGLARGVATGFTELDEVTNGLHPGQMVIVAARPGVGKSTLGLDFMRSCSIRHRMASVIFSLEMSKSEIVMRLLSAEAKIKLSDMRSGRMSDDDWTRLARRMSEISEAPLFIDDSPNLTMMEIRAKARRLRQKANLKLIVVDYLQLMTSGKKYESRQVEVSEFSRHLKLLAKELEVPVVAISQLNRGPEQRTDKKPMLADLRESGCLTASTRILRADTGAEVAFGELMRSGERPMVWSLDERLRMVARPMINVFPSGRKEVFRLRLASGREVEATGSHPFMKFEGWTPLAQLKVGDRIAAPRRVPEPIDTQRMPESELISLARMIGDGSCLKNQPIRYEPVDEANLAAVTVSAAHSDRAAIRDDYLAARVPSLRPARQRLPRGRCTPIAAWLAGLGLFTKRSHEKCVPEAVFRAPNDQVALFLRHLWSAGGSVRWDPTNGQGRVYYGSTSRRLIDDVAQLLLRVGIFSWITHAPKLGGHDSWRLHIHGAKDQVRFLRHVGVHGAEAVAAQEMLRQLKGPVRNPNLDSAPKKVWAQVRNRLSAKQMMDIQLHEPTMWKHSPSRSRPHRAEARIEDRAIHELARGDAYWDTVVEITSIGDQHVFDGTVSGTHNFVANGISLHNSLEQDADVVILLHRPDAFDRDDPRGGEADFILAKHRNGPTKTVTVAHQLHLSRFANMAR
# [10] = molecular target: Lysine-specific demethylase 4C (Homo sapiens, UniProt Q9H3R0); experiment: inhibition of JMJD2C H3K9me3 demethylation – biochemical, DELFIA europium, cherry-picked samples, dose response (AID 488835); type: functional
# Lysine-specific demethylase 4C, sequence (Q9H3R0 whole entry): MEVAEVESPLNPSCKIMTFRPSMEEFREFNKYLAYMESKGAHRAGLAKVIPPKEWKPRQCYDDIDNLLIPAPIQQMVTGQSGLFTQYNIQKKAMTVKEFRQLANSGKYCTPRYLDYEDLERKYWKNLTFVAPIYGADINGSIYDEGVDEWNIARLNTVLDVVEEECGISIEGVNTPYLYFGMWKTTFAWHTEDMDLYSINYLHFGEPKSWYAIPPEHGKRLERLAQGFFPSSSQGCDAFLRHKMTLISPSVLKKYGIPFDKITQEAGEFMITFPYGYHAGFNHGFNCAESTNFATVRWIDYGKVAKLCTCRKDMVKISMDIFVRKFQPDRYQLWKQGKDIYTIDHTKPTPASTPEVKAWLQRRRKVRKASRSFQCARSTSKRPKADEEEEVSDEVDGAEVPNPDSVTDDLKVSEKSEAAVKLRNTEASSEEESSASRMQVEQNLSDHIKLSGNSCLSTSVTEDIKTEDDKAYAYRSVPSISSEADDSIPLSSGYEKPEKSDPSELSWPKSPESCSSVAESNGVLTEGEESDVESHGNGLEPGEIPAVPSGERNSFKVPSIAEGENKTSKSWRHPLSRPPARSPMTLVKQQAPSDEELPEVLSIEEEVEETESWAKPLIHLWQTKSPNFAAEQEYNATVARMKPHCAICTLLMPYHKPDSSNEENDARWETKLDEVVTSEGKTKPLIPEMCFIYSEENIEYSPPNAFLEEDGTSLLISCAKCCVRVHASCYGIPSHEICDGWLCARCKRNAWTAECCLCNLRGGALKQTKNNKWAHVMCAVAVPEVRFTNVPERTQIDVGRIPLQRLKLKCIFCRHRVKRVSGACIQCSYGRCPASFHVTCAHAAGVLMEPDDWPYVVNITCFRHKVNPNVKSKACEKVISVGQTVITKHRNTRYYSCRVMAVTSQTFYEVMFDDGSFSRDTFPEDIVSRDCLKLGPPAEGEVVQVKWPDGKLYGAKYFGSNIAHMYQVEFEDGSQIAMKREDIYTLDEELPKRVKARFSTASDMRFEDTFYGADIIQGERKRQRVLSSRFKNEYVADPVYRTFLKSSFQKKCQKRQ
# [11] = molecular target: T4, Protein RecA (Mycobacterium tuberculosis, UniProt P9WHJ3); experiment: Fluorescence Cell-Free Homogeneous Dose Retest to Identify Inhibitors of RecA-Intein Splicing Activity. [Related pubchem assays (depositor defined):AID2097, AID2223, AID489010, AID492950]; type: functional
# T4 sequence (P9WHJ3 whole entry): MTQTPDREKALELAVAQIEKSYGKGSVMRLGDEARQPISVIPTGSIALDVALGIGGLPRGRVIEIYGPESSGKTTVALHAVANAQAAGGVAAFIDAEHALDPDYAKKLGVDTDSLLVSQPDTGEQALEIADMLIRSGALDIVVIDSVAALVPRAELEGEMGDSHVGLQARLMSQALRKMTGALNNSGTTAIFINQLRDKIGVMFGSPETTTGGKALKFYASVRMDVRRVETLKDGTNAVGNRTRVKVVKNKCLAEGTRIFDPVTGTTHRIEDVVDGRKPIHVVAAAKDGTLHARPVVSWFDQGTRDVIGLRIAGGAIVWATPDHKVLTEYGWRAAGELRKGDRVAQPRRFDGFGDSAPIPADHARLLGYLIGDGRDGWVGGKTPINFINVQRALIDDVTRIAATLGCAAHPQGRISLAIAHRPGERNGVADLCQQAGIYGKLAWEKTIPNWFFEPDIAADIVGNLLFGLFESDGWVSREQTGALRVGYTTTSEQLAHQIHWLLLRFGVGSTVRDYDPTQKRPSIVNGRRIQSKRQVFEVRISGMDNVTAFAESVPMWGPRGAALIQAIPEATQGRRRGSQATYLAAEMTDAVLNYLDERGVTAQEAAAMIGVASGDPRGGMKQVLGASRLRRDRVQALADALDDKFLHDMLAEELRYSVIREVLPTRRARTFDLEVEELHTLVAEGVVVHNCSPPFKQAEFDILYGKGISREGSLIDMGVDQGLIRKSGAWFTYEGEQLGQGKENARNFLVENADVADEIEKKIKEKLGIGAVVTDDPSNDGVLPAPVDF
# [12] = molecular target: Tyrosyl-DNA phosphodiesterase 2 (Homo sapiens, UniProt O95551); experiment: potency against TDP2 phosphodiesterase activity – biochemical, epi absorbance, IC50, dose response (AID 743297)
# [13] = molecular target: Mothers against decapentaplegic homolog 3 (Homo sapiens, UniProt P84022); experiment: inhibitors of SMAD-driven TGF-beta signaling – dose response (AID 715); type: functional
# Mothers against decapentaplegic homolog 3, sequence (P84022 whole entry): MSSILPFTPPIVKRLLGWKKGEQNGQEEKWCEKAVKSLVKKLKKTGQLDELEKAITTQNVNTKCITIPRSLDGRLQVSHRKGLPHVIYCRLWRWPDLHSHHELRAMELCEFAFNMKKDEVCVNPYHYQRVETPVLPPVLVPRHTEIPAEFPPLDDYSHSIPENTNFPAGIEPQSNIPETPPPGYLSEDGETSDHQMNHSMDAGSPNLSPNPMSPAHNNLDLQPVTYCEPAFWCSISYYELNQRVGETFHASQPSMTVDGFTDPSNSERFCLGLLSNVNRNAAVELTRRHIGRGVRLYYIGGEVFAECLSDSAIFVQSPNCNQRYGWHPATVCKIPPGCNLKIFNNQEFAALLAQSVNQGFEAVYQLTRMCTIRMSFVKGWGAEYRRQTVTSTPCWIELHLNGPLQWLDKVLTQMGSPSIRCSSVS
# [14] = molecular target: Potassium voltage-gated channel subfamily KQT member 2 (Rattus norvegicus, UniProt O88943); experiment: Mode of action assay - current amplitude concentration response for derivatives of ZTZ240, a potentiator of KCNQ2 potassium channels. [Related pubchem assays: 2258 (Summary assay for the KCNQ2 potentiators.), 2239 (Primary HTS assay for KCNQ2 potentiators with 305606 compounds tested, and 1644 are found to be active.)]; type: functional
# Potassium voltage-gated channel subfamily KQT member 2, sequence (O88943 whole entry): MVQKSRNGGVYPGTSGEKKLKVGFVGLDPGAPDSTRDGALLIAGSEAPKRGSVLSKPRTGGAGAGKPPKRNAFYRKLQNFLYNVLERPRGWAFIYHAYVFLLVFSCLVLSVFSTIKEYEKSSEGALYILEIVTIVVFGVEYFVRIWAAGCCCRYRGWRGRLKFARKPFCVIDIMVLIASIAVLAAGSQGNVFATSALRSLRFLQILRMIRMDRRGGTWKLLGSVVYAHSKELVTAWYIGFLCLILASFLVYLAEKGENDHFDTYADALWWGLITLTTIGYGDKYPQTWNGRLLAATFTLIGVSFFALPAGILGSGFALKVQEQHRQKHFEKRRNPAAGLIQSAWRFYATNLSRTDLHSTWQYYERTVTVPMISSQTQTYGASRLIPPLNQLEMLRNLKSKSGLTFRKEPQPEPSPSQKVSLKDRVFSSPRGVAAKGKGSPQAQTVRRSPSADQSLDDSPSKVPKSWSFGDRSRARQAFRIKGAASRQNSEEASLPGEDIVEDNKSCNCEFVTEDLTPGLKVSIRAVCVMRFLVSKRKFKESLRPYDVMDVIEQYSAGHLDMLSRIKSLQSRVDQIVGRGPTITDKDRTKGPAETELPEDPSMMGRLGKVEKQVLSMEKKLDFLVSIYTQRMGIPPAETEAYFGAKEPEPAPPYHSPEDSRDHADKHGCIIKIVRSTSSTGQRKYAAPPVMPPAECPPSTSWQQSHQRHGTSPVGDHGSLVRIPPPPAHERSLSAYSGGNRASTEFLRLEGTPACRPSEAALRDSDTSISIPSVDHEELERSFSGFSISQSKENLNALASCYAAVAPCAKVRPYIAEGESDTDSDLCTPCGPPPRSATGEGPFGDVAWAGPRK
# [15] = molecular target: T5, Aminopeptidase N (Plasmodium falciparum FcB1/Columbia, UniProt O96935); experiment: malaria alanyl aminopeptidase activity blockers – biochemical, fluorogenic H-Leu-NHMec substrate, 1536-well (AID 1445); set-up: species or system Plasmodium falciparum 3D7, 3D7
# T5 sequence (O96935 whole entry): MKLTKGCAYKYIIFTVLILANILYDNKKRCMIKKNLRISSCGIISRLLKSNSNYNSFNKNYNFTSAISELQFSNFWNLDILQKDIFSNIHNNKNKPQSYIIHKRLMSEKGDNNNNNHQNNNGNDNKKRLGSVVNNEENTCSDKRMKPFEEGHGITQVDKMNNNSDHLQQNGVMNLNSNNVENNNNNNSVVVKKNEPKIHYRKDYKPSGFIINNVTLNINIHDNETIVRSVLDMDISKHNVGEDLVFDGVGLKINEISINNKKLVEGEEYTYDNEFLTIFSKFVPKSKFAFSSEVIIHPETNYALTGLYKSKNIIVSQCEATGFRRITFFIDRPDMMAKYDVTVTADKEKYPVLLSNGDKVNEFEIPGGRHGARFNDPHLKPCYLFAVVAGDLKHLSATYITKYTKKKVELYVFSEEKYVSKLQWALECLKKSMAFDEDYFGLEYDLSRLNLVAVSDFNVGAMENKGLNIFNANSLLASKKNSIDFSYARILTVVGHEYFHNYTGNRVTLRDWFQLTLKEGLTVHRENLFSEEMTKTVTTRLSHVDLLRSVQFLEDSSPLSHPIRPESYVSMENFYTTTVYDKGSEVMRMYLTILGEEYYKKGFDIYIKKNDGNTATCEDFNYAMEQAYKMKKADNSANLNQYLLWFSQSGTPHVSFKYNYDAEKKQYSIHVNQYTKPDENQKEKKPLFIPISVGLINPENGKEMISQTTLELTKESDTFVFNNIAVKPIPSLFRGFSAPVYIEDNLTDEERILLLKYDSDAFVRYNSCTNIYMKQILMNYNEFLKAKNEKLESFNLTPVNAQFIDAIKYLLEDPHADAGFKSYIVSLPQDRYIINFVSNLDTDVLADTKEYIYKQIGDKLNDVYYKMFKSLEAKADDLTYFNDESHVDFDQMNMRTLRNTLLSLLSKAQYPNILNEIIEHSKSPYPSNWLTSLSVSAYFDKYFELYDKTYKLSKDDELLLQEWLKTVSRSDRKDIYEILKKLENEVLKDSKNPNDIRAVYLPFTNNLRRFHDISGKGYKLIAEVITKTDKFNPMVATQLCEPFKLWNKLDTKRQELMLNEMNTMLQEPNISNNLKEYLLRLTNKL
# [16] = antiviral protection against BTV-induced cell death – arbovirus, BSR cells, confirmation (AID 1250); type: functional;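 further: protection from viral cytopathic effect measured as cell viability by ATP luminescence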
# [17] = molecular target: Metabotropic glutamate receptor 4 (Homo sapiens, UniProt Q14833); experiment: Modulation of the Metabotropic Glutamate Receptor mGluR4: Calcium Assay. [Related pubchem assays: 2180, 2199, 2193, 2179, 2182, 2183, 2191, 2181, 2190, 2188, 2185, 2197 ]; type: functional
# Metabotropic glutamate receptor 4, sequence (Q14833 whole entry): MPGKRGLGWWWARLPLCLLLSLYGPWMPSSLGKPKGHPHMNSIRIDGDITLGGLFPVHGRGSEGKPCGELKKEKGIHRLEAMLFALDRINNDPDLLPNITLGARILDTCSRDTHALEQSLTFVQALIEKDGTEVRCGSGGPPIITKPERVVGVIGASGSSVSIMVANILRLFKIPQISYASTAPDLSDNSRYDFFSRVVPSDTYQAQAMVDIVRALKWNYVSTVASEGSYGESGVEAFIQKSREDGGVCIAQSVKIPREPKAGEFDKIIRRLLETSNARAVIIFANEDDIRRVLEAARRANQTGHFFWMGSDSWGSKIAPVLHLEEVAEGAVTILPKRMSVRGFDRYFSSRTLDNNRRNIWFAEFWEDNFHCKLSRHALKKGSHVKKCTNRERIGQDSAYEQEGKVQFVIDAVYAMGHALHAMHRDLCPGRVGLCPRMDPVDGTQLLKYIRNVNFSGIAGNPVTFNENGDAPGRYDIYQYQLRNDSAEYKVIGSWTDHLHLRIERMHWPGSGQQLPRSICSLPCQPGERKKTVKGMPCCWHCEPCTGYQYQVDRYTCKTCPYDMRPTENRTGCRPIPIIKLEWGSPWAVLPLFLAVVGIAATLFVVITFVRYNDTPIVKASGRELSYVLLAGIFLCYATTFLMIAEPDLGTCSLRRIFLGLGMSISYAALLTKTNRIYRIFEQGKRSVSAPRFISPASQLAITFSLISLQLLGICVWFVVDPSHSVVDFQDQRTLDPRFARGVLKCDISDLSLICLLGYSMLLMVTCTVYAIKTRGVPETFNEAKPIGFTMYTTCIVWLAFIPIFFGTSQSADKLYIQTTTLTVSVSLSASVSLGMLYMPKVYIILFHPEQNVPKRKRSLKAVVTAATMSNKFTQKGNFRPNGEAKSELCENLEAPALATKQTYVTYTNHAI
smiles,measurement,setting,value
O=C(N/N=C/c1cc(Br)ccc1OC(=O)c1ccc(Br)cc1)c1ccncc1,AC50,[1],2.29 µM (active)
same,EC50,[2],20 µM (active)
same,EC50,[3],121 µM (active)
same,IC50,[4],5.99 µM (active)
Cc1ccc(NC(=O)c2cnc(N3CCN(c4ccccn4)CC3)c3ccccc23)c(Br)c1,EC50,[5],> 29.9 µM (not active)
same,EC50,[6],8.67 µM (active)
same,EC50,[7],4.96 µM (active)
CCOc1ccc(N=Nc2c(=O)[nH]n3c(C)cc(C)nc23)cc1,EC50,[8],> 100 µM (active)
CC1(C)CC(=O)C(C2(O)C(=O)NC(=O)NC2=O)=C(O)C1,AC50,[9],1.23 µM (active)
same,AC50,[10],5.57 µM (active)
same,EC50,[11],2.23 µM (active)
same,IC50,[12],14.5 µM (inactive)
same,IC50,[13],2.3 µM (active)
O=C(Nc1ccc(Cl)nc1)c1ccc(F)c(F)c1,EC50,[14],14.4 µM (active)
CS(=O)(=O)C1=NSC2=NC(=O)/C(=C\c3ccc(-c4ccccc4)o3)C(=N)N21,IC50,[15],71.1 µM (active)
same,IC50,[16],36 µM (active)
COc1nc(NC(=O)c2ccccn2)ccc1Cl,EC50,[17],6.4 µM (active)
